The record followed here is US7045532B2 (Millennium Pharmaceuticals, Inc., priority 1999, dated 2006).

SMILES strings stand for the structures.

T1 sequence (Q9BYF1 18-740 limits assumed): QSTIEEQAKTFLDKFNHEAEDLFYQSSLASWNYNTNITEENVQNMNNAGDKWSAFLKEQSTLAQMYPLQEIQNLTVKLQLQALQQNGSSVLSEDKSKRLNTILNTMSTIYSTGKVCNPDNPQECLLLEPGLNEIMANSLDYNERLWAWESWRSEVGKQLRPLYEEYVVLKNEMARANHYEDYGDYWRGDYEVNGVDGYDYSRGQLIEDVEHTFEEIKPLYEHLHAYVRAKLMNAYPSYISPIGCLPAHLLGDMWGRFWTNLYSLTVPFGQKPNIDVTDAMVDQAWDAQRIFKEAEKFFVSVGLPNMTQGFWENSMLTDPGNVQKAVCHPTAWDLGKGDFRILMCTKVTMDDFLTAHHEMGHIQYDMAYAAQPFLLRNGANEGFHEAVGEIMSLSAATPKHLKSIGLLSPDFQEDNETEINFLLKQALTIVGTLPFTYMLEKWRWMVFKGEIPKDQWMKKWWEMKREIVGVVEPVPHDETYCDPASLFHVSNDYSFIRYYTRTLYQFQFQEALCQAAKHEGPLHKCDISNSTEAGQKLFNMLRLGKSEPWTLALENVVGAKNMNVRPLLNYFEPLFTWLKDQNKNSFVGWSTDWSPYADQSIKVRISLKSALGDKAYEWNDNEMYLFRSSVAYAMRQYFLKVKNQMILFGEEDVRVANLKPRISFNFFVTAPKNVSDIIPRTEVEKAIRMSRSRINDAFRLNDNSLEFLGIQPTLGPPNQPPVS

The first assay addresses T1, ACE-2 (Homo sapiens, UniProt Q9BYF1).
T1 construct: a stop codon inserted after the serine immediately preceding the transmembrane domain; made in house; host or cells: CHO K1 cells (transient transfection, purified from conditioned medium)
As to the kind of experiment: ACE-2 Competitive Substrate Assay (ACS Assay). The format is biochemical. To be noted: Ki class per key; compounds tested in 5% DMSO, 12 compound concentrations, 25° C.; Ki=Kiapp/(1+[S]/Km); read-out: Human ACE-2 Activity.
In the case of `CC(C)C[C@H](N[C@@H](C/C=C\c1cc(Cl)cc(Cl)c1)C(=O)O)C(=O)O` (stereo in doubt) [PV, 2-(1-Carboxy-3-methyl-butylamino)-5-(3,5-dichloro-phenyl)-pent-4-enoic acid], the Ki is below 100 nM.

Still in this assay, the particulars now being: Ki class; compounds tested in 5% DMSO, 12 compound concentrations, Ki=Kiapp/(1+[S]/Km); read-out: Human ACE-2 Activity.
Regarding `CC(C)CC(N[C@@H](Cc1cncn1Cc1cccc(C(F)(F)F)c1)C(=O)O)C(=O)O` (single isomer, unassigned) [JA, 2-[1-Carboxy-2-[3-(3-trifluoromethyl-benzyl)-3H-imidazol-4-yl]-ethylamino]4-methyl-pentanoic acid], the Ki was above 500 nM.

With `CC(C)CC(N[C@@H](Cc1cncn1Cc1c(Cl)cccc1Cl)C(=O)O)C(=O)O` (single isomer, unassigned) [JD, 2-[1-Carboxy-2-[3-(2,6-dichloro-benzyl)-3H-imidazol-4-yl]-ethylamino]4-methyl-pentanoic acid], the Ki is above 500 nM.

As to `CC(C)CC(N[C@@H](Cc1cncn1Cc1ccc2c(c1)OCO2)C(=O)O)C(=O)O` (single isomer, unassigned) [JF], the Ki was above 500 nM.

On to `CC(C)CC(N[C@@H](Cc1cncn1CC1CCCCC1)C(=O)O)C(=O)O` (single isomer, unassigned) [JG, 2-[1-Carboxy-2-(3-cyclohexylmethyl-3H-imidazol-4-yl)-ethylamino]4-methyl-pentanoic acid], for which the Ki is above 500 nM.

As for `CC(C)CC(N[C@@H](Cc1cncn1CCC1CCCCC1)C(=O)O)C(=O)O` (single isomer, unassigned) [JJ, 2-[1-Carboxy-2-[3-(2-cyclohexyl-ethyl)-3H-imidazol-4-yl]-ethylamino]4-methyl-pentanoic acid], the Ki was above 500 nM.

Take `CC(C)CC(N[C@@H](Cc1cncn1CCc1ccccc1)C(=O)O)C(=O)O` (single isomer, unassigned) [JL, 2-[1-Carboxy-2-[3-phenethyl-3H-imidazol-4-yl)-ethylamino]-4-methyl-pentanoic acid]: the Ki is above 500 nM.

Take `CCC(CC)Cn1cncc1C[C@H](NC(CC(C)C)C(=O)O)C(=O)O` (single isomer, unassigned) [JM, 2-[1-Carboxy-2-[3-(2-ethylbutyl)-3H-imidazol-4-yl]-ethylamino]-4-methyl-pentanoic acid]: the Ki was below 100 nM.

In the case of `CCC(CC)Cn1cncc1C[C@H](NC(CC(C)C)C(=O)O)C(=O)O` (single isomer, unassigned) [JN, 2-[1-Carboxy-2-[3-(2-ethylbutyl)-3H-imidazol-4-yl]-ethylamino]-4-methyl-pentanoic acid], the Ki is above 500 nM.

Take `CC(C)CC(N[C@@H](Cc1cncn1Cc1cccc(F)c1)C(=O)O)C(=O)O` (single isomer, unassigned) [JR, 2-[1-Carboxy-2-[3-(3-fluoro-benzyl)-3H-imidazol-4-yl]-ethylamino]4-methyl-pentanoic acid]: the Ki lay in the range of 100 to 500 nM.

On to `CC(C)CC(N[C@@H](Cc1csc(Cc2ccccc2)n1)C(=O)O)C(=O)O` (single isomer, unassigned) [JZ, 2-[2-(2-Benzyl-thiazol-4-yl)-1-carboxy-ethylamino]-4-methyl-pentanoic acid], for which the Ki was above 500 nM.

In the case of `Cc1nc(C[C@H](NC(CC(C)C)C(=O)O)C(=O)O)c(Cc2ccccc2)s1` (single isomer, unassigned) [KB, 2-[2-(5-Benzyl-2-methyl-thiazol-4-yl)-1-carboxy-ethylamino]-4-methyl-pentanoic acid], the Ki lay in the range of 100 to 500 nM.

With `Cc1nc(C[C@H](NC(CC(C)C)C(=O)O)C(=O)O)c(Cc2ccccc2)s1` (single isomer, unassigned) [KC, 2-[2-(5-Benzyl-2-methyl-thiazol-4-yl)-1-carboxy-ethylamino]-4-methyl-pentanoic acid], the Ki is above 500 nM.

For the molecule `CC(C)C[C@H](N[C@@H](Cc1cncn1Cc1cc(Cl)cc(Cl)c1)C(=O)OCc1ccccc1)C(=O)O` (single isomer, unassigned) [LC, 2-(1-Benzyloxycarbonyl-2-[3-(3,5-dichloro-benzyl)-3H-imidazol-4-yl]-ethylamino]-4-methyl-pentanoic acid], the Ki is below 100 nM.

As to `Cc1cc(C[C@H](NC(CC(C)C)C(=O)O)C(=O)O)no1` (stereo in doubt) [IM, 2-[1-Carboxy-2-(5-methyl-isoxazol-3-yl)-ethylamino]-4-methyl-pentanoic acid], the Ki was above 500 nM.

Consider `CC(C)C[C@H](N[C@@H](CC1COC(=O)N1Cc1cc(Cl)cc(Cl)c1)C(=O)O)C(=O)O` (stereo in doubt) [NE, (S,S,S)-2-{1-Carboxy-2-[3-(3,5-dichloro-benzyl)-2-oxo-oxazolidin-4-yl]-ethylamino}-4-methyl-pentanoic acid], for which the Ki was below 100 nM.

As to `CC(C)CC(N[C@@H](C[C@H]1COC(=O)N1Cc1cc(Cl)cc(Cl)c1)C(=O)O)C(=O)O` (stereo in doubt) [NN, (R,S,S)-2-{1-Carboxy-2-[3-(3,5-dichloro-benzyl)-2-oxo-oxazolidin-4-yl]-ethylamino}-4-methyl-pentanoic acid], the Ki lay within 100 to 500 nM.

For `CC(C)CC(N[C@@H](Cc1cn(Cc2cccc(F)c2F)cn1)C(=O)O)C(=O)O` (stereo partly shown) [IW, 2-[1-Carboxy-2-[1-(2,3-difluoro-benzyl)-1H-imidazol-4-yl]-ethylamino]4-methyl-pentanoic acid], the Ki is above 500 nM.

Consider `CC(C)C[C@H](N[C@@H](Cc1csc(-c2cccc(C(F)(F)F)c2)n1)C(=O)O)C(=O)O` [KD, (S,S)-2-{1-Carboxy-2-[2-(3-trifluoromethyl-phenyl)-thiazol-4-yl-]-ethylamino}-4-methyl-pentanoic acid], for which the Ki was above 500 nM.

For `CC(C)C[C@H](N[C@@H](CCNC(=O)c1ccc2ccccc2c1)C(=O)O)C(=O)O` [KE], the Ki was above 500 nM.

For the molecule `CC(C)C[C@H](N[C@@H](CCNS(=O)(=O)c1ccc(-c2ccccc2)cc1)C(=O)O)C(=O)O` [KF, 2-[3-(Biphenyl-4-sulfonylamino)-1-carboxy-propylamino]-4-methyl-pentanoic acid], the Ki lay within 100 to 500 nM.

As for `CC(C)C[C@H](N[C@@H](Cc1csc(-c2ccc(Cl)cc2Cl)n1)C(=O)O)C(=O)O` [KG, (S,S)-2-{1-Carboxy-2-[2-(2,4-dichloro-phenyl)-thiazol-4-yl-]-ethylamino}-4-methyl-pentanoic acid], the Ki is below 100 nM.

On to `CC(C)C[C@H](N[C@@H](Cc1csc(-c2ccc3c(c2)CCO3)n1)C(=O)O)C(=O)O` [KI, (S,S)-2-{1-Carboxy-2-[2(2,3-dihydro-benzofaran-5-yl]-thiazol-4-yl]-ethylamino}-4-methyl pentanoic acid], for which the Ki is below 100 nM.

Turning to `CC(C)C[C@H](N[C@@H](Cc1csc(-c2ccc(F)c(Cl)c2)n1)C(=O)O)C(=O)O` [KJ, (S,S)-2-{1-Carboxy-2-[2-(3-chloro-4-fluoro-phenyl)-thiazol-4-yl-]-ethylamino}-4-methyl-pentanoic acid], the Ki was below 100 nM.

Regarding `Cc1ccc(-c2nc(C[C@H](N[C@@H](CC(C)C)C(=O)O)C(=O)O)cs2)cc1` [KK, (S,S)-2-[1-Carboxy-2-(2-p-tolyl-thiazol-4-yl)-ethylamino]-4-methyl-pentanoic acid], the Ki was below 100 nM.

For the molecule `CC(C)C[C@H](N[C@@H](Cc1cc(-c2ccccc2)on1)C(=O)O)C(=O)O` [KL, 2-[1-Carboxy-2-(5-phenyl-isoxazol-3-yl)-ethylamino]-4-methyl-pentanoic acid], the Ki was 100 to 500 nM.

Consider `CC(C)C[C@H](NC(=O)[C@@H](S)Cc1ccccc1)C(=O)O` [KM, 2-(2-Mercapto-3-phenyl-propionylamino)-4-methyl-pentanoic acid], for which the Ki is above 500 nM.

With `CC(C)C[C@H](N[C@@H](CCNS(=O)(=O)c1ccc(-c2ccc(Cl)cc2)cc1)C(=O)O)C(=O)O` [KN, (S,S)-2-[1-Carboxy-3-(4′-chloro-biphenyl-4-sulfonylamino)-propylamino]-4-methyl-pentanoic acid], the Ki is above 500 nM.

As to `COc1cccc(C(=O)NCC[C@H](N[C@@H](CC(C)C)C(=O)O)C(=O)O)c1` [KO, 2-[1-Carboxy-3-(3-methoxy-benzoylamino)-propylamino]-4-methyl-pentanoic acid], the Ki is above 500 nM.

Turning to `CC(C)C[C@H](N[C@@H](CCNC(=O)c1cccc(Cl)c1)C(=O)O)C(=O)O` [KP, (S,S)-2-[1-Carboxy-3-(3-chloro-benzoylamino)-propylamino]-4-methyl-pentanoic acid], the Ki was above 500 nM.

The assay is the same for the next values; noted with them: Ki class; compounds tested in 5% DMSO, 12 concentrations; read-out: Human ACE-2 Activity.
`CC(C)CC(N[C@@H](Cc1csc(-c2ccccc2)n1)C(=O)O)C(=O)O` (stereo in doubt) [GQ, 2-[1-Carboxy-2-[2-phenyl-thiazol-4-yl)-ethylamino]-4-methyl-pentanoic acid]: the Ki is above 500 nM.

`O=C(O)[C@@H]1C[C@@H](C(=O)O)N1` [A, Azetidine-2,4-dicarboxylic acid]: the Ki was above 500 nM.

Turning to `CCOC(=O)C(CCc1ccccc1)N[C@@H](CC(C)C)C(=O)O` (stereo partly shown) [B, 2-(1-Ethoxycarbonyl-3-phenyl-propylamino)-4-methyl-pentanoicacid], the Ki was above 500 nM.

Regarding `CC(C)CC(N[C@@H](CN(Cc1ccccc1)c1ccccc1)C(=O)O)C(=O)O` (stereo partly shown) [GT, 2-[2-(Benzyl-phenyl-amino)-1-carboxy-ethylamino]-4-methyl-pentanoic acid], the Ki is above 500 nM.

As for `O=C(O)[C@@H]1CCC[C@H](C(=O)O)N1` [H, Pipendine-2,6-dicarboxylic acid], the Ki is above 500 nM.

Regarding `C[C@@H](N[C@@H](CCCNC(=N)N)C(=O)O)C(=O)O` [I, 2-(1-Carboxy-ethylamino)-5-guanidino-pentanoic acid], the Ki is above 500 nM.

For the molecule `NCCCC[C@@H](C(=O)O)N(CC(=O)O)CC(=O)O` [K, 6-Amino-2-(bis-carboxymethyl-amino)-hexanoic acid], the Ki was above 500 nM.

The assay is the same for the next values; noted with them: Table 3, very good ACE-2 inhibiting compounds; species not given; read-out: ACE-2 Activity, Ki.
With `CC(C)C[C@H](N[C@@H](Cc1cncn1Cc1cc(Cl)cc(Cl)c1)C(=O)OCc1ccccc1)C(=O)O` (single isomer, unassigned) [LC, 2-(1-Benzyloxycarbonyl-2-[3-(3,5-dichloro-benzyl)-3H-imidazol-4-yl]-ethylamino]-4-methyl-pentanoic acid], the Ki was below 50 nM.

Consider `CC(C)C[C@H](N[C@@H](CC1COC(=O)N1Cc1cc(Cl)cc(Cl)c1)C(=O)O)C(=O)O` (stereo in doubt) [NE, (S,S,S)-2-{1-Carboxy-2-[3-(3,5-dichloro-benzyl)-2-oxo-oxazolidin-4-yl]-ethylamino}-4-methyl-pentanoic acid], for which the Ki fell in the range of 50 to 100 nM.

`CC(C)C[C@H](N[C@@H](Cc1csc(-c2ccc(Cl)cc2Cl)n1)C(=O)O)C(=O)O` [KG, (S,S)-2-{1-Carboxy-2-[2-(2,4-dichloro-phenyl)-thiazol-4-yl-]-ethylamino}-4-methyl-pentanoic acid]: the Ki fell in the range of 50 to 100 nM.

Take `CC(C)C[C@H](N[C@@H](Cc1csc(-c2ccc3c(c2)CCO3)n1)C(=O)O)C(=O)O` [KI, (S,S)-2-{1-Carboxy-2-[2(2,3-dihydro-benzofaran-5-yl]-thiazol-4-yl]-ethylamino}-4-methyl pentanoic acid]: the Ki lay in the range of 50 to 100 nM.

For the molecule `CC(C)C[C@H](N[C@@H](Cc1csc(-c2ccc(F)c(Cl)c2)n1)C(=O)O)C(=O)O` [KJ, (S,S)-2-{1-Carboxy-2-[2-(3-chloro-4-fluoro-phenyl)-thiazol-4-yl-]-ethylamino}-4-methyl-pentanoic acid], the Ki lay in the range of 50 to 100 nM.

In the case of `Cc1ccc(-c2nc(C[C@H](N[C@@H](CC(C)C)C(=O)O)C(=O)O)cs2)cc1` [KK, (S,S)-2-[1-Carboxy-2-(2-p-tolyl-thiazol-4-yl)-ethylamino]-4-methyl-pentanoic acid], the Ki was below 50 nM.
